Measured values published in US20250064789A1, “KETOAMIDE DERIVATIVES AND PHARMACEUTICAL USES THEREOF” (priority 2022, published 2025).

Each molecule was assayed against recombinant SARS-CoV-2 M^pro (Severe acute respiratory syndrome coronavirus 2 (2019-nCoV) (SARS-CoV-2), UniProt P0DTD1) (assay: Inhibition of SARS-CoV-2 M^pro enzyme activity (fluorescent substrate assay)). Settings: inhibition of SARS-CoV-2 M^pro enzyme activity; values given in μM; read-out: IC50.
Assay type: biochemical
`O=C(NCc1ccccn1)C(=O)[C@@H](Cc1ccccc1)NC(=O)[C@@H]1C[C@@H]2CCC[C@@H]2N1C(=O)C1CCC(F)(F)CC1` [Compound 263] gave an IC50 of 1.56 ± 0.05 µM. Molecule `O=C(NCc1ccccn1)C(=O)[C@@H](Cc1ccccc1)NC(=O)[C@@H]1C[C@@H]2CCCC[C@@H]2N1C(=O)C1CCC(F)(F)CC1` [Compound 264] has an IC50 greater than 2.5 µM. Molecule `O=C(NCc1ccccn1)C(=O)[C@@H](Cc1ccccc1)NC(=O)[C@@H]1[C@H]2CC[C@H](C2)N1C(=O)C1CCC(F)(F)CC1` [Compound 270] has an IC50 greater than 2.5 µM. `O=C(NCc1ccccn1)C(=O)[C@@H](Cc1ccccc1)NC(=O)[C@@H]1CC2(CC2)CN1C(=O)C1CCC(F)(F)CC1` [Compound 272] gave an IC50 greater than 2.5 µM. `O=C(NCc1ccccn1)C(=O)[C@@H](Cc1ccccc1)NC(=O)C1(NC(=O)N2CCC(F)(F)CC2)CC1` [Compound 300] showed an IC50 of 2.43 ± 0.04 µM.

Same assay, conditions: inhibition of SARS-CoV-2 M^pro enzyme activity; values in nM; read-out: IC50
With `O=C(NCc1ccccn1)C(=O)[C@@H](Cc1ccccc1)NC(=O)C1(NC(=O)c2ccc(F)cc2)CCCC1` [Compound 248] the IC50 was 0.0246 ± 0.0006 µM. `O=C(NCc1ccccn1)C(=O)[C@@H](Cc1ccccc1)NC(=O)C(NC(=O)c1ccc(F)cc1)C(F)(F)F` (stereo partly drawn) [Compound 249] was tested, and the IC50 was 0.256 ± 0.0064 µM. In the case of `O=C(NCc1ccccn1)C(=O)[C@@H](Cc1ccccc1)NC(=O)[C@H](NC(=O)c1ccc(F)cc1)C1CC1` [Compound 250], the IC50 is reported as 0.0424 ± 0.0024 µM. `CC[C@@H](C)C(NC(=O)c1ccc(F)cc1)C(=O)N[C@H](Cc1ccccc1)C(=O)C(=O)NCc1ccccn1` (stereo partly drawn) [Compound 251] gave an IC50 of 0.0342 ± 0.0005 µM. In the case of `CC(C)(C)C(NC(=O)c1ccc(F)cc1)C(=O)N[C@H](Cc1ccccc1)C(=O)C(=O)NCc1ccccn1` (stereo partly drawn) [Compound 252], the IC50 is reported as 0.0949 ± 0.0027 µM. `COC[C@@H](NC(=O)c1ccc(F)cc1)C(=O)N[C@H](Cc1ccccc1)C(=O)C(=O)NCc1ccccn1` [Compound 253] gave an IC50 of 0.0224 ± 0.0014 µM. `NC(=O)C[C@@H](NC(=O)c1ccc(F)cc1)C(=O)N[C@H](Cc1ccccc1)C(=O)C(=O)NCc1ccccn1` [Compound 254] gave an IC50 of 0.0455 ± 0.0031 µM. In the case of `CC(C)(C)OC(=O)NCC(C)(C)C(=O)N[C@H](Cc1ccccc1)C(=O)C(=O)NCc1ccccn1` [Compound 255], the IC50 is reported as 0.111 ± 0.0041 µM. `O=C(NCc1ccccn1)C(=O)[C@@H](Cc1ccccc1)NC(=O)C1[C@H]2CCC[C@H]2CN1C(=O)c1cc2cc(Cl)ccc2o1` (stereo partly drawn) [Compound 256] gave an IC50 of 0.0205 ± 0.0017 µM. Work on `O=C(NCc1ccccn1)C(=O)[C@@H](Cc1ccccc1)NC(=O)[C@@H]1[C@H]2CCC[C@H]2CN1C(=O)COc1ccc(Cl)c(Cl)c1` [Compound 257] yielded an IC50 of 0.0718 ± 0.0001 µM. For `O=C(NCc1ccccn1)C(=O)[C@@H](Cc1ccccc1)NC(=O)[C@@H]1[C@H]2CCC[C@H]2CN1C(=O)NC1CCCCC1` [Compound 258], the IC50 was 0.0932 ± 0.0006 µM. In the case of `O=C(NCc1ccccn1)C(=O)[C@@H](Cc1ccccc1)NC(=O)[C@@H]1[C@H]2CCC[C@H]2CN1C(=O)CC1CCC(F)(F)CC1` [Compound 259], the IC50 is reported as 0.0214 ± 0.0035 µM. For `O=C(NCc1ccccn1)C(=O)[C@@H](Cc1ccccc1)NC(=O)[C@@H]1[C@H]2CCC[C@H]2CN1C(=O)c1cnccn1` [Compound 260], the IC50 was 0.742 ± 0.0063 µM. `O=C(NCc1ccccn1)C(=O)[C@@H](Cc1ccccc1)NC(=O)[C@@H]1[C@H]2CCC[C@H]2CN1C(=O)[C@@H](NC(=O)c1cnccn1)C1CCCCC1` [Compound 261] showed an IC50 of 0.8636 ± 0.0001 µM. `CC1(C)[C@@H]2[C@@H](C(=O)N[C@H](Cc3ccccc3)C(=O)C(=O)NCc3ccccn3)N(C(=O)C3CCC(F)(F)CC3)C[C@@H]21` [Compound 262] was tested, and the IC50 was 0.9337 ± 0.005 µM. With `O=C(NCc1ccccn1)C(=O)[C@@H](Cc1ccccc1)NC(=O)[C@H]1C[C@@H]2CCCC[C@@H]2N1C(=O)C1CCC(F)(F)CC1` [Compound 265] the IC50 was 0.0156 ± 0.0001 µM. Work on `O=C(NCc1ccccn1)C(=O)[C@@H](Cc1ccccc1)NC(=O)C1c2ccccc2CN1C(=O)C1CCC(F)(F)CC1` (stereo partly drawn) [Compound 266] yielded an IC50 of 0.0344 ± 0.0023 µM. `O=C(NCc1ccccn1)C(=O)[C@@H](Cc1ccccc1)NC(=O)[C@H]1Cc2ccccc2CN1C(=O)C1CCC(F)(F)CC1` [Compound 267] showed an IC50 of 0.0112 ± 0.0003 µM. Work on `O=C(NCc1ccccn1)C(=O)[C@@H](Cc1ccccc1)NC(=O)[C@@H]1C[C@H]2C[C@H]2N1C(=O)C1CCC(F)(F)CC1` [Compound 268] yielded an IC50 of 0.296 ± 0.0038 µM. With `O=C(NCc1ccccn1)C(=O)[C@@H](Cc1ccccc1)NC(=O)[C@H]1C[C@H]2C[C@H]2N1C(=O)C1CCC(F)(F)CC1` [Compound 269] the IC50 was 0.0196 ± 0.0004 µM. In the case of `O=C(NCc1ccccn1)C(=O)[C@@H](Cc1ccccc1)NC(=O)[C@H]1Cc2ccccc2CN1C(=O)[C@@H](NC(=O)c1cnccn1)C1CCCCC1` [Compound 271], the IC50 is reported as 0.0115 ± 0.0001 µM. `O=C(NCc1ccccn1)C(=O)[C@@H](Cc1ccccc1)NC(=O)[C@H]1C[C@@H]2C[C@@H]2N1C(=O)CC1CCC(F)(F)CC1` [Compound 273] gave an IC50 of 0.017 ± 0.0001 µM. In the case of `O=C(NCc1ccccn1)C(=O)[C@@H](Cc1ccccc1)NC(=O)C12CC(CN1C(=O)C1CCC(F)(F)CC1)C2` [Compound 274], the IC50 is reported as 0.9108 ± 0.0065 µM. In the case of `O=C(NCc1ccccn1)C(=O)[C@@H](Cc1ccccc1)NC(=O)[C@H]1CC(F)(F)CN1C(=O)CC1CCC(F)(F)CC1` [Compound 276], the IC50 is reported as 0.013 ± 0.0008 µM. In the case of `O=C(NCc1ccccn1)C(=O)[C@@H](Cc1ccccc1)NC(=O)[C@H]1CC(F)(F)CN1C(=O)C1(F)CCCCC1` [Compound 277], the IC50 is reported as 0.0307 ± 0.0006 µM. Work on `O=C(NCc1ccccn1)C(=O)[C@@H](Cc1ccccc1)NC(=O)[C@H]1CC(F)CN1C(=O)C1CCC(F)(F)CC1` (stereo partly drawn) [Compound 278] yielded an IC50 of 0.0337 ± 0.0005 µM. For `O=C(NCc1ccccn1)C(=O)[C@@H](Cc1ccccc1)NC(=O)C1CCN(Cc2ccccc2)C1` (stereo partly drawn) [Compound 279], the IC50 was 0.272 ± 0.0062 µM. In the case of `O=C(NCc1ccccn1)C(=O)[C@@H](Cc1ccccc1)NC(=O)[C@@H]1CCCN1C(=O)[C@@H](NC(=O)c1cnccn1)C1CCCCC1` [Compound 280], the IC50 is reported as 0.0132 ± 0.0012 µM. For `O=C(NCc1ccccn1)C(=O)[C@@H](Cc1ccccc1)NC(=O)[C@H]1CCCCN1C(=O)[C@H]1CC[C@@H](C(F)(F)F)CC1` [Compound 281], the IC50 was 0.0148 ± 0.0001 µM. `O=C(NCc1ccccn1)C(=O)[C@@H](Cc1ccccc1)NC(=O)[C@H]1CCCCN1C(=O)C1CCC(F)(F)CC1` [Compound 282] was tested, and the IC50 was 0.0134 ± 0.0004 µM. In the case of `O=C(NCc1ccccn1)C(=O)[C@@H](Cc1ccccc1)NC(=O)[C@H]1CCCCN1C(=O)CC1CCC(F)(F)CC1` [Compound 283], the IC50 is reported as 0.0146 µM. `O=C(NCc1ccccn1)C(=O)[C@@H](Cc1ccccc1)NC(=O)[C@H]1CCCCN1C(=O)[C@H](NC(=O)c1cnccn1)C1CCCCC1` [Compound 284] was tested, and the IC50 was 0.0144 ± 0.0002 µM. `O=C(NCc1ccccn1)C(=O)[C@@H](Cc1ccccc1)NC(=O)[C@H]1CCCCN1C(=O)CCC1CCC(F)(F)CC1` [Compound 285] was tested, and the IC50 was 0.0171 ± 0.0002 µM. Molecule `O=C(NCc1ccccn1)C(=O)[C@@H](Cc1ccccc1)NC(=O)[C@H]1CCCCN1C(=O)[C@@H]1C[C@@H]2[C@H](C1)C2(F)F` [Compound 286] has an IC50 of 0.0163 ± 0.0015 µM. In the case of `O=C(NCc1ccccn1)C(=O)[C@@H](Cc1ccccc1)NC(=O)[C@H]1COCCN1C(=O)[C@H]1CC[C@@H](C(F)(F)F)CC1` [Compound 287], the IC50 is reported as 0.0241 µM. `O=C(NCc1ccccn1)C(=O)[C@@H](Cc1ccccc1)NC(=O)[C@H]1COCCN1C(=O)CCC1CCC(F)(F)CC1` [Compound 291] was tested, and the IC50 was 0.0131 ± 0.0028 µM. `O=C(NCc1ccccn1)C(=O)[C@@H](Cc1ccccc1)NC(=O)[C@@H]1COCCN1C(=O)CC1CCC(F)(F)CC1` [Compound 292] showed an IC50 of 0.0114 ± 0.0002 µM. `O=C(NCc1ccccn1)C(=O)[C@@H](Cc1ccccc1)NC(=O)[C@H]1COCCN1C(=O)[C@@H]1C[C@@H]2[C@H](C1)C2(F)F` [Compound 293] showed an IC50 of 0.0164 ± 0.0011 µM. Work on `O=C(NCc1ccccn1)C(=O)[C@@H](Cc1ccccc1)NC(=O)[C@H]1COCCN1C(=O)C1(F)CCCCC1` [Compound 294] yielded an IC50 of 0.0145 ± 0.0002 µM. Molecule `C[C@@H](NC(=O)NC1CCC(F)(F)CC1)C(=O)N[C@H](Cc1ccccc1)C(=O)C(=O)NCc1ccccn1` [Compound 295] has an IC50 of 0.0122 µM. Work on `C[C@@H](NC(=O)N1CCC(C(F)(F)F)CC1)C(=O)N[C@H](Cc1ccccc1)C(=O)C(=O)NCc1ccccn1` [Compound 297] yielded an IC50 of 0.0181 ± 0.0003 µM. For `C[C@@H](NC(=O)N1CC2(C1)CC(F)(F)C2)C(=O)N[C@H](Cc1ccccc1)C(=O)C(=O)NCc1ccccn1` [Compound 298], the IC50 was 0.0149 ± 0.0001 µM. For `O=C(NC1CCC(F)(F)CC1)NC1(C(=O)N[C@H](Cc2ccccc2)C(=O)C(=O)NCc2ccccn2)CC1` [Compound 299], the IC50 was 0.0157 ± 0.0001 µM. With `CC(C)(NC(=O)NC1CCC(F)(F)CC1)C(=O)N[C@H](Cc1ccccc1)C(=O)C(=O)NCc1ccccn1` [Compound 301] the IC50 was 0.0092 ± 0.0004 µM. `CC(C)(NC(=O)N1CCC(F)(F)CC1)C(=O)N[C@H](Cc1ccccc1)C(=O)C(=O)NCc1ccccn1` [Compound 302] showed an IC50 of 0.0415 ± 0.0009 µM. `CC(C)(NC(=O)NCC1CCC(F)(F)CC1)C(=O)N[C@H](Cc1ccccc1)C(=O)C(=O)NCc1ccccn1` [Compound 303] showed an IC50 of 0.0107 ± 0.001 µM. Molecule `O=C(CNC(=O)N1CCC(F)(F)CC1)N[C@H](Cc1ccccc1)C(=O)C(=O)NCc1ccccn1` [Compound 304] has an IC50 of 0.0538 ± 0.0058 µM. Molecule `O=C(CNC(=O)NC1CCC(F)(F)CC1)N[C@H](Cc1ccccc1)C(=O)C(=O)NCc1ccccn1` [Compound 305] has an IC50 of 0.0243 ± 0.0004 µM. With `O=C(N[C@@H](C1CC1)C(F)(F)F)NC1(C(=O)N[C@H](Cc2ccccc2)C(=O)C(=O)NCc2ccccn2)CCC1` [Compound 306] the IC50 was 0.0193 ± 0.001 µM. `O=C(N[C@H](C1CC1)C(F)(F)F)NC1(C(=O)N[C@H](Cc2ccccc2)C(=O)C(=O)NCc2ccccn2)CCC1` [Compound 307] showed an IC50 of 0.026 ± 0.0021 µM. For `O=C(NCc1ccccn1)C(=O)[C@@H](Cc1ccccc1)NC(=O)[C@H]1CC2CCCCC2N1C(=O)NCC1CC(F)(F)C1` (stereo partly drawn) [Compound 308], the IC50 was 0.0139 ± 0.0012 µM. `O=C(NCc1ccccn1)C(=O)[C@@H](Cc1ccccc1)NC(=O)[C@H]1CC2CCCCC2N1C(=O)N1CCC(F)(F)CC1` (stereo partly drawn) [Compound 309] gave an IC50 of 0.0194 µM. Work on `O=C(NCc1ccccn1)C(=O)[C@@H](Cc1ccccc1)NC(=O)[C@H]1Cc2ccccc2CN1C(=O)NCC1CC(F)(F)C1` [Compound 310] yielded an IC50 of 0.0124 µM. `O=C(NCc1ccccn1)C(=O)[C@@H](Cc1ccccc1)NC(=O)[C@H]1Cc2ccccc2CN1C(=O)N1CCC(F)(F)CC1` [Compound 311] showed an IC50 of 0.0167 ± 0.0006 µM. `O=C(NCc1ccccn1)C(=O)[C@@H](Cc1ccccc1)NC(=O)[C@H]1Cc2ccccc2CN1C(=O)OC1CCC(F)(F)CC1` [Compound 312] was tested, and the IC50 was 0.0145 ± 0.0001 µM.
